Assay results: a compilation of properties of binary mixtures (doi:10.1039/c7cp05886a)

Assay: xn = mol fraction of the nth substance listed
Conditions: 298.15 K, 100 kPa

CCCCCCCC[n+]1ccccc1.O=S(=O)([N-]S(=O)(=O)C(F)(F)F)C(F)(F)F + CCCCOC(C)=O
Conditions	electrical conductivity [S/m]	viscosity [mPa·s]
x2 = 0	0.097	104.1
x2 = 0.2414	0.166	–
x2 = 0.2556	–	49.6
x2 = 0.481	0.271	–
x2 = 0.501	–	18.43
x2 = 0.6984	–	6.82
x2 = 0.7372	0.384	–
x2 = 0.7522	–	4.87
x2 = 0.7923	0.377	–
x2 = 0.7996	–	3.57
x2 = 0.8427	0.333	–
x2 = 0.8487	–	2.47
x2 = 0.8928	0.258	–
x2 = 0.8996	–	1.732
x2 = 0.9456	0.124	–
x2 = 0.9493	–	1.227

CCCCCCCC[N+]1(C)CCCC1.O=S(=O)([N-]S(=O)(=O)C(F)(F)F)C(F)(F)F + CCCCOC(C)=O
Conditions	electrical conductivity [S/m]	viscosity [mPa·s]
x2 = 0	0.082	138.2
x2 = 0.481	0.256	–
x2 = 0.4969	–	17.37
x2 = 0.6954	–	7.1
x2 = 0.7372	0.361	–
x2 = 0.7499	–	5.07
x2 = 0.8031	–	3.42
x2 = 0.8484	–	2.5
x2 = 0.8928	0.242	–
x2 = 0.9016	–	1.732
x2 = 0.9431	–	1.202
x2 = 0.9456	0.131	–

CCCCOC(C)=O + CCCC[n+]1ccn(C)c1.O=S(=O)([N-]S(=O)(=O)C(F)(F)F)C(F)(F)F
Conditions	electrical conductivity [S/m]	viscosity [mPa·s]
x1 = 0.2414	0.529	26
x1 = 0.481	0.67	11.88
x1 = 0.6824	0.725	4.9
x1 = 0.7372	0.704	3.42
x1 = 0.7923	0.654	2.65
x1 = 0.8427	0.535	2.043

CCCCCCCCn1cc[n+](C)c1.O=S(=O)([N-]S(=O)(=O)C(F)(F)F)C(F)(F)F + CCCCOC(C)=O
Conditions	electrical conductivity [S/m]	viscosity [mPa·s]
x2 = 0.2622	–	44.2
x2 = 0.481	0.307	–
x2 = 0.5001	–	17.1
x2 = 0.6824	0.407	–
x2 = 0.7372	0.414	–
x2 = 0.7503	–	4.99
x2 = 0.7923	0.406	–
x2 = 0.797	–	3.47
x2 = 0.8503	–	2.53
x2 = 0.8928	0.279	–
x2 = 0.8976	–	1.73
x2 = 0.9305	–	1.308
x2 = 0.9456	0.19	–
